These results are taken from ChEMBL document CHEMBL5729782, “6-heteroaryloxy benzimidazoles and azabenzimidazoles as JAK2 inhibitors” (2023).

Molecules are shown by their SMILES. Values joined by “and” are separate entries in the source; they are usually repeats but may differ in a detail not shown here. Equal values may be shown once.

The nature of the assay: Streptavidin-coated magnetic beads were treated with biotinylated small molecule ligands for 30 minutes at room temperature to generate affinity resins for kinase assays. The liganded beads were blocked with excess biotin and washed with blocking buffer (SeaBlock (Pierce), 1% BSA, 0.05% Tween 20, 1 mmol/L DTT) to remove unbound ligand and to reduce nonspecific phage binding. Binding reactions were assembled by combining kinases, liganded affinity beads, and test compounds in 1× binding buffer (1×PBS, 0.05% Tween 20, 0.1% BSA, 1 mmol/L DTT). Test compound was prepared as 111× stocks in 100% DMSO and directly diluted into the assay wells. All reactions were performed in polypropylene 384-well plates in a final volume of 0.02 mL. The assay plates were incubated at room temperature with shaking for 1 hour and the affinity beads were washed with wash buffer (1×PBS, 0.05% Tween 20). The beads were then re-suspended in elution buffer (1×PBS, 0.05% Tween 20, 0.5 μmol/L non-biotinylated affinity ligand) and incubated at room temperature with shaking for 30 minutes. The kinase concentration in the eluate was measured by qPCR. (Real-time PCR tracks product formation cycle by cycle.)
As to `CC(=O)Nc1cc(Oc2cnc3nc(Nc4cc(C(C)(C)C)n([C@H]5CCC[C@@H]5O)n4)n(C)c3c2)ccn1`, the Kd (usually the equilibrium constant for the complex coming apart) was “in the range around 30 nM”.

Turning to `CC(=O)Nc1cc(Oc2cnc3nc(Nc4cc(C5CC5)cn(C)c4=O)n(C)c3c2Cl)ccn1`, the equilibrium dissociation constant (Kd) entry was “in the range around 30 nM”.

Regarding `COc1c(Oc2ccnc(NC(=O)C3CC3)c2)cnc2nc(Nc3cc(C(C)(C)C)n(C[C@H](C)O)n3)n(C)c12`, the equilibrium dissociation constant (Kd) is less than 10 nM.

Take `CC(=O)Nc1ccc(Oc2cnc3c(c2)nc(Nc2cc(C(C)(C)C)n([C@H]4CCOC4)n2)n3C)cn1`: the dissociation constant (Kd) is less than 10 nM.

As for `CCCCO[C@H]1C[C@@H](n2nc(Nc3nc4ccc(Oc5ccnc(NC(C)=O)c5)cc4n3C)cc2C(C)(C)C)C1`, the equilibrium dissociation constant (Kd) was less than 10 nM.

Take `CC(=O)Nc1cc(Oc2ccc3nc(Nc4cc(C(F)(F)F)cn(C[C@@H]5COCCO5)c4=O)n(C)c3c2)ccn1`: the dissociation constant (Kd) result is “in the range around 525 nM”.

For the compound `CNC(=O)c1cc(Oc2ccc3nc(Nc4cc(C(C)(C)C)nn4C)n(C)c3c2)ccn1`, the dissociation constant (Kd) entry was “in the range around 525 nM”.

As for `COc1c(Oc2ccnc(NC(=O)C3CC3)c2)cnc2nc(Cc3cc(C4CC4)cn(C)c3=O)n(C)c12`, the Kd was less than 10 nM.

Regarding `COCCN1CC[C@@H](n2nc(NC3Nc4ncc(Oc5ccnc(NC(=O)C6CC6)c5)c(Cl)c4N3C)cc2C(C)(C)C)C1` (some centres not stated), the Kd is less than 10 nM.

Consider `COc1c(Oc2ccnc(NC(=O)C3CC3)c2)cnc2nc(Nc3cc(C(C)(C)C)n(C[C@@H](C)O)n3)n(C)c12`, for which the Kd is less than 10 nM.

With `CO[C@H]1CCC1Cn1cc(C2CC2)cc(Nc2nc3ccc(Oc4ccnc(NC(C)=O)c4)cc3n2C)c1=O` (some centres not stated), the dissociation constant Kd is less than 10 nM.

As to `CC(=O)Nc1cc(Oc2cnc3nc(NC4=CC(C(F)(F)F)=CC(C)C4=O)n(C)c3c2Cl)ccn1` (configuration not stated), the Kd is less than 10 nM.

Regarding `CC(=O)Nc1cc(Oc2cnc3nc(Nc4cc(C(C)C)n(CCF)n4)n(C)c3c2)ccn1`, the dissociation constant Kd was less than 10 nM.

On to `COc1c(Oc2ccnc(NC(C)=O)c2)cnc2nc(Nc3nc([C@H]4CCOC4)c(C(C)(C)C)s3)n(C)c12`, for which the Kd is less than 10 nM.

For the compound `CC(=O)Nc1cc(Oc2cnc3nc(Nc4cc(C(C)C)n(CCC#N)n4)n(C)c3c2C)ccn1`, the Kd is less than 10 nM.

As to `COc1c(Oc2ccnc(NC(C)=O)c2)cnc2nc(Nc3nc([C@@H]4CCOC4)c(C(C)(C)C)s3)n(C)c12`, the dissociation constant Kd is less than 10 nM.

For the compound `CO[C@H]1CCOC[C@@H]1n1cc(C(F)(F)F)cc(Nc2nc3ccc(Oc4ccnc(NC(C)=O)c4)cc3n2C)c1=O`, the equilibrium dissociation constant (Kd) was less than 10 nM.

Take `CNc1cc(Oc2ccnc(NC(C)=O)c2)cnc1NC(=S)Nc1cc2n(n1)CCCC2(C)C`: the Kd was less than 10 nM.

For `CC(=O)Nc1cc(Oc2cnc3nc(Nc4cc(C(C)C)n(CC(F)F)n4)n(C)c3c2)ccn1`, the dissociation constant (Kd) is less than 10 nM.

`CC(C)(C)OC(=O)N1CC2(CC(n3nc(C(F)(F)F)cc3N)C2)C1`: the Kd was less than 10 nM.

With `CC(=O)Nc1cc(Oc2cnc3nc(Nc4cc5n(n4)CCCC5(C)C)n(C)c3c2Cl)ccn1`, the Kd was less than 10 nM.

In the case of `CC(=O)Nc1cc(Oc2ccc3nc(Nc4cc(C5CC5)cn(CC5CC[C@@H]5O)c4=O)n(C)c3c2)ccn1` (some centres not stated), the dissociation constant Kd is less than 10 nM.

As for `COc1ccc(Cn2cc(Cc3ccc(Nc4nc5ccc(Oc6ccnc(NC(C)=O)c6)cc5n4C)cc3C(F)(F)F)cn2)cc1`, the equilibrium dissociation constant (Kd) result was “in the range around 525 nM”.

As for `CC(=O)Nc1cc(Oc2cnc3nc(Nc4cc(C(C)(C)C)n(C[C@H]5CCN(C)CC5(F)F)n4)n(C)c3c2)ccn1`, the equilibrium dissociation constant (Kd) result was “in the range around 3000 nM”.

Regarding `COc1c(Oc2ccnc(NC(C)=O)c2)cnc2nc(Nc3cc(C(C)(C)C)n(-c4ccn(CC(F)F)c4)n3)n(C)c12`, the Kd is less than 10 nM.

On to `CC(=O)Nc1cc(Oc2ccc3nc(Nc4cc(C5CC5)cn(C5CCC5O)c4=O)n(C)c3c2)ccn1` (configuration not stated), for which the dissociation constant Kd is < 10 nM (3×) and in the range around 30 nM.

In the case of `CNc1cc(Oc2ccnc(NC(C)=O)c2)cnc1NC(=S)Nc1cc(C2CC2)cn(C)c1=O`, the dissociation constant (Kd) was less than 10 nM.
